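Results reflect a 48-hour exposure of cells in 96-well plates to compound at five concentrations. The concentration for 50% growth inhibition is given as GI50. The concentration for full growth arrest is given as TGI.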
Tests used:
Assay in all cases: inhibition of tumour cell growth, NCI panel, 48 h
[1] = tested on: SK-OV-3 ovarian
[2] = tested on: HCT-15 colon
[3] = tested on: EKVX NSCLC
[4] = tested on: OVCAR-5 ovarian
[5] = tested on: MOLT-4 leukemia
[6] = tested on: RPMI-8226 leukemia
[7] = tested on: SNB-75 CNS
[8] = tested on: CAKI-1 renal
[9] = tested on: IGROV1 ovarian
[10] = tested on: BT-549 breast

Compound	TGI [1] [µM]	TGI [2] [µM]	TGI [3] [µM]	TGI [4] [µM]	TGI [5] [µM]	TGI [6] [µM]	TGI [7] [µM]	TGI [8] [µM]	TGI [9] [µM]	GI50 [1] [µM]	GI50 [2] [µM]	GI50 [10] [µM]	TGI [10] [µM]	GI50 [4] [µM]	GI50 [5] [µM]	GI50 [8] [µM]	GI50 [6] [µM]	GI50 [9] [µM]	GI50 [7] [µM]	GI50 [3] [µM]
CCCCCCCCCCCCCCCCc1c(C(=O)OC)nc(NC#N)[nH]c1=O	> 25	> 25	> 25	> 25	> 25	> 25	> 25													
C=CC12CCCCC1CC(C(=O)OC)=C(O)C2 (configuration not stated)	> 100		> 100	> 100	> 100	> 100	> 100	> 100	> 100											
COc1ccc(C2c3ccc4ccccc4c3Oc3ncn(CCCn4ccnc4)c(=N)c32)cc1OC (configuration not stated)	18.4	12.8		17.8	6.25	8.58	8.13	17.8	21.8	5.8	3.37	3.41	13.5	4.55	2.59	4.84	2.81	6.04	2.12	
N#CC(Sc1ccccc1)C(N)=O (configuration not stated)	> 100	> 100	> 100	> 100	> 100	> 100	> 100	> 100	> 100											
CCCCCCCCCCCCCCCCn1cc[n+](C)c1	3.17	2.15	1.96	1.64	1.5	0.19		2.33	0.517	0.941	0.989	0.444	1.61	0.329	0.306	0.385	0.024	0.201		0.422
Cc1ccc(-c2cc(C(=O)Nc3ccc(S(=O)(=O)N4CCCCC4)cc3)[nH]n2)c(O)c1	> 100	> 100		> 100	> 100	> 100	> 100	> 100	> 100	> 100	> 100	> 100	> 100	> 100	55.1	> 100	> 100	> 100	> 100	
COc1ccc(OC)c(N2CC(O)=C(c3nc4ccccc4s3)C2=N)c1	> 100	> 100	> 100	> 100	> 100	> 100	> 100	> 100	> 100	> 100	5.22			> 100	4.16	76.6	35.7	33.1	32	67.3
CC1OC(n2cc(F)c(=O)[nH]c2=O)CCC1=O (configuration not stated)	> 100	> 100		> 100	> 100	> 100	> 100	> 100	> 100											
c1cc[c]([Ge]([O]c2cccc3cccnc23)([c]2ccccc2)[c]2ccccc2)cc1	8.56	12.4	12.9	29.5		6.77	13.1	28.9	10.3	3.3	3.56			15.9		10.8	2.29	3.1	3.5	3.42
O=C1OC2(c3ccc(O)cc3Oc3cc(O)ccc32)c2cccc3cccc1c23	> 100	52.6		40.7	> 100	56.3	43.4	> 100	57.4	34	19.2	21.6	62.7	17.2	31.6	24.6	21.5	19.1	12.3	
O=CCCn1[nH]c(=O)ccc1=O		> 100	> 100	> 100	> 100	> 100	> 100	> 100	> 100											
COC(=O)[C@H](Cc1cn(C)cn1)NC(=O)[C@H](CC(C)C)NC(=O)Nc1cc(C(F)(F)F)cc(C(F)(F)F)c1	> 10	> 10		> 10	> 10	> 10	> 10	> 10	> 10	> 10	> 10	> 10	> 10	> 10	3.4	> 10	4.98	4.63	> 10	
COc1ccc(C)c2sc(N(Cc3cccnc3)C(=O)c3ccc(C#N)cc3)nc12	> 100	> 100		> 100	> 100	> 100		> 100	> 100	> 100	30.5	35	> 100	47.5	33.5	47.2	26.1	52		
COc1ccc(O)c(/C=N\Nc2ccccc2)c1	> 100	> 100	> 100	> 100	18.2	5.94	> 100						> 100							
O=S1Nc2cccc(C(F)(F)F)c2S1 (configuration not stated)	> 100	43	> 100	> 100	55.4	> 100	82.8	> 100	> 100											
CCCCCN(CCCCC)CCC[C@@H](C)[C@H]1CC[C@H]2[C@@H]3[C@H](OCCCN)C[C@@H]4C[C@H](OCCCN)CC[C@]4(C)[C@H]3C[C@H](OCCCN)[C@]12C	34.9	> 100		23.4	14.4	4.71	22.8	> 100	15	15.9	15.4	3.27	8.37	10.3	3.85	40.7	1.84	2.72	7.52	
O=CN/C=C/c1ccccc1	> 100	> 100	> 100	> 100	> 100	> 100	> 100	> 100	> 100											
C=CCCn1nc(-c2ccccc2)oc1=O	> 100	> 100	> 100	> 100	> 100		> 100	> 100	> 100											
O=C(Nc1ccc(Cl)c(C(F)(F)F)c1)Nc1ccc(-c2cccnc2)cc1N1CCC(CO)CC1	6.59	8.01	> 100	> 100	> 100		8.03	16	> 100	2.22	2.32	2.13	6.22	2.96	2.57	2.32		3.48	2.1	1.72

Compound	TGI [1] [µM]	TGI [2] [µM]	TGI [3] [µM]	TGI [4] [µM]	TGI [5] [µM]	TGI [6] [µM]	TGI [7] [µM]	TGI [8] [µM]	TGI [9] [µM]	GI50 [1] [µM]	GI50 [2] [µM]	GI50 [10] [µM]	TGI [10] [µM]	GI50 [4] [µM]	GI50 [5] [µM]	GI50 [8] [µM]	GI50 [6] [µM]	GI50 [9] [µM]	GI50 [7] [µM]	GI50 [3] [µM]
O=C1CCCc2ccc([N+](=O)[O-])c(O)c21	> 100	> 100	> 100	> 100	> 100		> 100	> 100	> 100											
C[C@@H]1CC[C@@]2(C)OC(c3ccccc3)[C@H](CO)N2C1=O (some centres not stated)		> 100	> 100	> 100		> 100	> 100	> 100	> 100											
COc1ccc2cc3c4cc(OC)c(OC)cc4ccn3c2c1	> 100		> 100	> 100	> 100			> 100	> 100											
O/N=C1/CCCC/C1=C\c1ccc(Cl)c(Cl)c1	86.9	> 100	> 100		36.4		60.1	99.7	> 100											
COc1ccc(/C=C/c2onc3c(=O)n(C)nc(-c4ccccc4)c23)cc1	> 100	> 100	> 100		> 100	> 100		82.2	> 100											
NC1=NN(c2ccccc2)C(=O)C1C(=O)C(=O)Nc1ccccc1 (configuration not stated)	> 100	> 100	> 100	> 100	> 100	> 100		> 100	> 100											
CC(C)(C)c1cc(C[P+](c2ccccc2)(c2ccccc2)c2ccccc2)cc(C(C)(C)C)c1O	6.7	11.9		14.3	5.19	0.627	6.18	8.7	7.46	1.44	2.39	0.33	0.898	2.5	1.41	2.64	0.178	0.437	0.369	
O=C(O)c1cnc2c(ccc3[nH]cccc32)c1=O	> 100	> 100	> 100	> 100	> 100		> 100		> 100											
CN1CCN(C)C1c1ccc(C2N(C)CCN2C)cc1	> 100	> 100	> 100	> 100	62	59.1	> 100	> 100	> 100	> 100	77.7			86.4	26.1	> 100	19.3	> 100	> 100	> 100
CCNCC(=O)Nc1ccc2c(c1)C(=O)c1ccc(NC(=O)CNCC)cc1C2=O	9.48	8.29	20.5	10.7			7.44	29.6	19.5											
CCN1/C(=C/C(C)=C/c2sc3ccc4ccccc4c3[n+]2CC)Sc2ccc3ccccc3c21	0.78	0.744		1.93	2.15	0.131	0.761	1.15	0.404	0.236	0.219			0.486	0.164	0.264	< 0.0134	0.146	0.205	
COC(=O)CCc1n(Cc2ccc3ccccc3c2)c2ccccc2[n+]1Cc1ccc2ccccc2c1	4.85	8.08	5.63	2.77	2.98		2.26		1.9	1.89	2.71			1.18	1.13			0.441	0.93	1.63
CCOC(=O)C1CC(=O)C=C2CCCCC21 (configuration not stated)	> 100	> 100	> 100	> 100	> 100	> 100	> 100	> 100	> 100											
Nc1nc(-c2cccnc2)cc(-c2cc(-c3cccnc3)nc(N)n2)n1	> 100	> 100	> 100	> 100	> 100	> 100		> 100	> 100				> 100							
CC(=O)N1c2ccccc2N(C(C)=O)C1c1ccc(C2N(C(C)=O)c3ccccc3N2C(C)=O)[nH]1	> 100	> 100	> 100	> 100	> 100	> 100	> 100	> 100	> 100											
CCOC(=O)NC(=O)c1cn(CCSCCOC(=O)NCCCCCCNC(=O)OCCSCCn2cc(C(=O)NC(=O)OCC)c(=O)n(C)c2=O)c(=O)n(C)c1=O	> 100	> 100	> 100	> 100	> 100	66.8	> 100													
Cn1cnc([N+](=O)[O-])c1Sc1n[nH]c(-c2ccc(Cl)cc2)n1	95.7		79.9	63.6	38.1	87.7	50.7	78.8	62.3											
COc1ccc(C2(Cl)C(Cl)(C(F)(F)F)C2(Cl)C(F)(F)F)cc1 (configuration not stated)	31.2	29.6	31.6	27	15	34.8	28	29.5	30.8											
CCCCCCOC(=O)CC1=C(C)/C(=C/c2[nH]c(-c3ccc[nH]3)cc2OC)N=C1C	1.24	1.14	1.64	2	1.46		0.3	1.12	1.23	0.279	0.0315	0.0865	1.59	0.371	0.0436	0.0706		0.178	0.0372	0.0576
